Laboratory results taken from ChEMBL document CHEMBL1201862, “PubChem BioAssay data set” (2004).
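Each compound was tested at five concentrations against cells in 96-well plates for 48 hours. Abbreviation: GI50, concentration required for 50% inhibition of growth.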 Activity calls are given as the source filed them. No stated cut-off is given here; in the data, active = GI50 up to about 1.1 µM and inactive = higher.

Experiments:
Experiment in all cases: growth of human tumour cells (NCI), 48 h
KM-20L2 = tested on: KM-20L2
IGROV-1 = tested on: IGROV-1
K562 = tested on: K562
SF-539 = tested on: SF-539
OVCAR-5 = tested on: OVCAR-5
XF498 = tested on: XF498
SK-MEL-28 = tested on: SK-MEL-28
UACC-257 = tested on: UACC-257
NCI-H23 = tested on: NCI-H23
ACHN = tested on: ACHN
LOX IMVI = tested on: LOX IMVI
COLO 205 = tested on: COLO 205
TK-10 = tested on: TK-10
HCC 2998 = tested on: HCC 2998
UACC-62 = tested on: UACC-62
SF-295 = tested on: SF-295
M19-MEL = tested on: M19-MEL
CCRF-CEM = tested on: CCRF-CEM
LXFL 529 = tested on: LXFL 529
U-251 = tested on: U-251
HOP-92 = tested on: HOP-92
KM12 = tested on: KM12
SW-620 = tested on: SW-620
HT-29 = tested on: HT-29
SF-268 = tested on: SF-268
RPMI-8226 = tested on: RPMI-8226
SNB-19 = tested on: SNB-19
HCT-15 = tested on: HCT-15
CAKI-1 = tested on: CAKI-1
RXF 393 = tested on: RXF 393
OVCAR-4 = tested on: OVCAR-4
A549 = tested on: A549
A498 = tested on: A498
UO-31 = tested on: UO-31
NCI-H522 = tested on: NCI-H522
786-0 = tested on: 786-0
DLD-1 = tested on: DLD-1
SN12C = tested on: SN12C
OVCAR-8 = tested on: OVCAR-8
SK-OV-3 = tested on: SK-OV-3
SK-MEL-5 = tested on: SK-MEL-5
SNB-75 = tested on: SNB-75
OVCAR-3 = tested on: OVCAR-3
MOLT-4 = tested on: MOLT-4
HOP-18 = tested on: HOP-18
DMS-273 = tested on: DMS-273
HL-60 = tested on: HL-60
NCI-H460 = tested on: NCI-H460
Malme-3M = tested on: Malme-3M
EKVX = tested on: EKVX
RXF 631 = tested on: RXF 631
SK-MEL-2 = tested on: SK-MEL-2
M14 = tested on: M14
NCI-H226 = tested on: NCI-H226
HCT-116 = tested on: HCT-116
SNB-78 = tested on: SNB-78
DMS-114 = tested on: DMS-114
HOP-62 = tested on: HOP-62

For `O=C(O)[C@@H](NS(=O)(=O)c1ccc([N+](=O)[O-])cc1)c1ccccc1`, the GI50 (KM-20L2) was > 100 µM (inactive), the GI50 (IGROV-1) was > 100 µM (inactive) and the GI50 (K562) was > 100 µM (inactive). The GI50 (SF-539) was > 100 µM (inactive), the GI50 (OVCAR-5) was > 100 µM (inactive) and the GI50 (XF498) was > 100 µM (inactive). The GI50 (SK-MEL-28) was > 100 µM (inactive), the GI50 (UACC-257) was > 100 µM (inactive) and the GI50 (NCI-H23) was > 100 µM (inactive). For the same compound, the GI50 (ACHN) was > 100 µM (inactive), the GI50 (LOX IMVI) was > 100 µM (inactive) and the GI50 (COLO 205) was > 100 µM (inactive). The GI50 (TK-10) was > 100 µM (inactive), the GI50 (HCC 2998) was > 100 µM (inactive) and the GI50 (UACC-62) was > 100 µM (inactive). For the same compound, the GI50 (SF-295) was > 100 µM (inactive), the GI50 (M19-MEL) was > 100 µM (inactive) and the GI50 (CCRF-CEM) was > 100 µM (inactive). For the same compound, the GI50 (LXFL 529) was > 100 µM (inactive), the GI50 (U-251) was > 100 µM (inactive) and the GI50 (HOP-92) was > 100 µM (inactive). The GI50 (KM12) was > 100 µM (inactive), the GI50 (SW-620) was > 100 µM (inactive) and the GI50 (HT-29) was > 100 µM (inactive). The GI50 (SF-268) was > 100 µM (inactive), the GI50 (RPMI-8226) was > 100 µM (inactive) and the GI50 (SNB-19) was > 100 µM (inactive). For the same compound, the GI50 (HCT-15) was over 100 µM, the GI50 (CAKI-1) was > 100 µM (inactive) and the GI50 (RXF 393) was > 100 µM (inactive). For the same compound, the GI50 (OVCAR-4) was > 100 µM (inactive), the GI50 (A549) was > 100 µM (inactive) and the GI50 (A498) was > 100 µM (inactive). The GI50 (UO-31) was > 100 µM (inactive), the GI50 (NCI-H522) was 73.6 µM (inactive) and the GI50 (786-0) was > 100 µM (inactive). The GI50 (DLD-1) was > 100 µM (inactive), the GI50 (SN12C) was > 100 µM (inactive) and the GI50 (OVCAR-8) was > 100 µM (inactive). For the same compound, the GI50 (SK-OV-3) was > 100 µM (inactive), the GI50 (SK-MEL-5) was > 100 µM (inactive) and the GI50 (SNB-75) was > 100 µM (inactive). For the same compound, the GI50 (OVCAR-3) was > 100 µM (inactive), the GI50 (MOLT-4) was > 100 µM (inactive) and the GI50 (HOP-18) was > 100 µM (inactive). The GI50 (DMS-273) was > 100 µM (inactive), the GI50 (HL-60) was > 100 µM (inactive) and the GI50 (NCI-H460) was > 100 µM (inactive). The GI50 (Malme-3M) was > 100 µM (inactive), the GI50 (EKVX) was > 100 µM (inactive) and the GI50 (RXF 631) was > 100 µM (inactive). For the same compound, the GI50 (SK-MEL-2) was > 100 µM (inactive), the GI50 (M14) was > 100 µM (inactive) and the GI50 (NCI-H226) was > 100 µM (inactive).
In the case of `O=C(C(=O)c1ccc(Cc2ccc(C(=O)C(=O)c3ccccc3)cc2)cc1)c1ccccc1`, the GI50 (KM-20L2) is reported as > 100 µM (inactive), the GI50 (IGROV-1) is reported as > 100 µM (inactive) and the GI50 (K562) is reported as > 100 µM (inactive). For the same compound, the GI50 (SF-539) was > 100 µM (inactive), the GI50 (OVCAR-5) was > 100 µM (inactive) and the GI50 (SK-MEL-28) was > 100 µM (inactive). The GI50 (UACC-257) was > 100 µM (inactive), the GI50 (NCI-H23) was > 100 µM (inactive) and the GI50 (ACHN) was > 100 µM (inactive). For the same compound, the GI50 (LOX IMVI) was > 100 µM (inactive), the GI50 (COLO 205) was > 100 µM (inactive) and the GI50 (TK-10) was > 100 µM (inactive). The GI50 (HCC 2998) was > 100 µM (inactive), the GI50 (HCT-116) was > 100 µM (inactive) and the GI50 (UACC-62) was > 100 µM (inactive). The GI50 (SF-295) was > 100 µM (inactive), the GI50 (SNB-78) was > 100 µM (inactive) and the GI50 (M19-MEL) was > 100 µM (inactive). For the same compound, the GI50 (CCRF-CEM) was 61.5 µM (inactive), the GI50 (LXFL 529) was > 100 µM (inactive) and the GI50 (U-251) was > 100 µM (inactive). For the same compound, the GI50 (HOP-92) was > 100 µM (inactive), the GI50 (KM12) was > 100 µM (inactive) and the GI50 (SW-620) was > 100 µM (inactive). The GI50 (HT-29) was > 100 µM (inactive), the GI50 (SF-268) was > 100 µM (inactive) and the GI50 (SNB-19) was > 100 µM (inactive). The GI50 (HCT-15) was over 100 µM, the GI50 (CAKI-1) was > 100 µM (inactive) and the GI50 (RXF 393) was > 100 µM (inactive). The GI50 (OVCAR-4) was > 100 µM (inactive), the GI50 (A549) was > 100 µM (inactive) and the GI50 (A498) was > 100 µM (inactive). For the same compound, the GI50 (UO-31) was > 100 µM (inactive), the GI50 (NCI-H522) was > 100 µM (inactive) and the GI50 (786-0) was > 100 µM (inactive). The GI50 (DLD-1) was > 100 µM (inactive), the GI50 (DMS-114) was > 100 µM (inactive) and the GI50 (SN12C) was > 100 µM (inactive). The GI50 (OVCAR-8) was > 100 µM (inactive), the GI50 (SK-OV-3) was > 100 µM (inactive) and the GI50 (SK-MEL-5) was > 100 µM (inactive). The GI50 (HOP-62) was > 100 µM (inactive), the GI50 (SNB-75) was > 100 µM (inactive) and the GI50 (OVCAR-3) was > 100 µM (inactive). For the same compound, the GI50 (HOP-18) was > 100 µM (inactive), the GI50 (DMS-273) was > 100 µM (inactive) and the GI50 (HL-60) was > 100 µM (inactive). For the same compound, the GI50 (NCI-H460) was > 100 µM (inactive), the GI50 (Malme-3M) was > 100 µM (inactive) and the GI50 (EKVX) was > 100 µM (inactive). For the same compound, the GI50 (RXF 631) was > 100 µM (inactive), the GI50 (SK-MEL-2) was > 100 µM (inactive) and the GI50 (M14) was > 100 µM (inactive). For the same compound, the GI50 (NCI-H226) was > 100 µM (inactive).
